# Measured values reported in publication PMC2742655 (Bioorganic & medicinal chemistry letters, 2009).
# How the values were obtained:
# [1] = tested on: P. falciparum 3D7 (chloroquine-sensitive); assay: Antiplasmodial activity, 3D7 strain; type: cell-based; conditions: Plasmodium falciparum, 3D7, read-out: IC50 3D7
# [2] = tested on: P. falciparum D6 (chloroquine sensitive, mefloquine resistant); assay: Antiplasmodial activity, D6 strain; type: cell-based; conditions: Plasmodium falciparum, D6, read-out: IC50 D6
# [3] = tested on: P. falciparum FCR3 (atovaquone resistant); assay: Antiplasmodial activity, FCR3 strain; type: cell-based; conditions: Plasmodium falciparum, FCR3, read-out: IC50 FCR3
# [4] = tested on: P. falciparum V1/S (chloroquine and pyrimethamine resistant); assay: microbe, parasite or virus in culture; type: cell-based; conditions: Plasmodium falciparum, read-out: IC50 VI/S
# [5] = tested on: P. falciparum W2 strain (chloroquine-resistant); assay: Antiplasmodial activity, growth of P. falciparum W2 strain; type: cell-based; conditions: Plasmodium falciparum, W2, read-out: IC50 W2
# [6] = biological target: T1, falcipain-2 (FP-2) (Plasmodium falciparum, UniProt Q8I6U4); type: biochemical; conditions: ratio 6d:12d:5, relative to 5 = 1
# T1 sequence (Q8I6U4 244-484): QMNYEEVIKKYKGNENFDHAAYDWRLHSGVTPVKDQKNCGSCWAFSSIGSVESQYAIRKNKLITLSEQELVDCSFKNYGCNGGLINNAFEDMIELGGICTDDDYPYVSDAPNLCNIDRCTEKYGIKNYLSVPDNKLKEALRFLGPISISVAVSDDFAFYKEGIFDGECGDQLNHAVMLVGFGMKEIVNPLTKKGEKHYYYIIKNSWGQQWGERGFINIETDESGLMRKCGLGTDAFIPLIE
# [7] = tested on: P. falciparum trophozoites (food vacuole); conditions: parasites incubated with compound; cited from earlier work
compound,measurement,setting,value
CCN(CC)CCCC(C)Nc1ccnc2cc(Cl)ccc12 (stereo not drawn) [Chloroquine],IC50,[1],0.0116 ± 0.0011 µM
same,IC50,[2],0.0169 ± 0.0021 µM
same,IC50,[3],0.0511 ± 0.0001 µM
same,IC50,[4],0.065 ± 0.0041 µM
same,IC50,[5],0.0781 ± 0.00691 µM
"CC(C)C[C@H](NC(=O)N1CCOCC1)C(=O)N[C@H](/C=C/S(=O)(=O)c1ccccc1)CCc1ccccc1 [Compound 5, Mu-Leu-hPhe-VSPh]",IC50 ratio for FP-2 inhibition,[6],1
CC(C)C[C@H](NC(=O)c1ccc(CO[C@H]2O[C@@H]3O[C@@]4(C)CC[C@H]5[C@H](C)CC[C@@H]([C@H]2C)[C@@]35OO4)cc1)C(=O)N[C@H](/C=C/S(=O)(=O)c1ccccc1)CCc1ccccc1 [Compound 6d],IC50 ratio for FP-2 inhibition,[6],1650
CC(C)C[C@H](NC(=O)OC(C)(C)C)C(=O)N[C@H](/C=C/S(=O)(=O)c1ccccc1)CCc1ccccc1 [Compound 12d],IC50 ratio for FP-2 inhibition,[6],70
"CC(C)C[C@H](NC(=O)[C@H]1O[C@@H]1C(=O)O)C(=O)NCCCCN=C(N)N [Compound E64, E64]",swollen food vacuole abnormality (block in hemoglobin hydrolysis),[7],observed
